Structures can show the parent of a compound that is named as a salt. Where two headings read alike, the source gives them in different places.
How the values were obtained:
[1] = tested on: AP1, P53, Nrf2, and NF-κB
CYP3A4 = details: cited from earlier work
CYP3A5 = tested on: CYP3A5; set-up: method as in doi:10.1016/j.ccr.2020.213600; details: cited from earlier work
[2] = regardless of metabolic activation (S9- and S9+), 24 h
[3] = under metabolic activation (S9+, 1% rat liver S9), 24 h
[4] = without metabolic activation (S9-), 24 h

| SMILES | Toxic (natural products exceeding Score 3, Venn diagram list Fig. 3c) [1] | sum of activity scores compared between metabolic activation and non-metabolic conditions [1] | Toxic (natural products exceeding Score 3, Venn diagram list Fig. 3c) ([1]; human) | further results |
| --- | --- | --- | --- | --- |
| CCc1c2c(nc3ccc(O)cc13)-c1cc3c(c(=O)n1C2)COC(=O)[C@]3(O)CC [7-Ethyl-10-Hydroxycamptothecin] |  |  |  | GFP intensity, AP1 cell line (AP1): increased |
| CC[C@@]1(O)C(=O)OCc2c1cc1n(c2=O)Cc2cc3c(OC)cccc3nc2-1 [9-Methoxycamptothecin] |  |  |  | GFP expression, NF-κB cell line (NF-κB; [2]): increased GFP expression |
| CC[C@@]1(O)C(=O)OCc2c1cc1n(c2=O)Cc2cc3cc(O)ccc3nc2-1 [10-Hydroxycamptothecin] | Common | consistently active regardless of metabolic activation |  | GFP intensity, AP1 cell line (AP1; [2]): increased |
| C[C@]12CC[C@H](O)C[C@H]1CC[C@@H]1[C@@H]2[C@H](O)C(=O)[C@]2(C)[C@@H](c3ccc(=O)oc3)CC[C@]12O [Arenobufagin] | S9- only | more active without metabolic activation |  | GFP expression, AP1 cell line (AP1; [3]): did not respond; GFP expression, AP1 cell line (AP1; [4]): specifically induced GFP expression |
| C[C@]12CC[C@H](O)C[C@H]1CC[C@@H]1[C@@H]2CC[C@]2(C)[C@@H](c3ccc(=O)oc3)CC[C@]12O [Bufalin] |  | more active under metabolic activation | S9+ only | GFP expression, AP1 cell line (AP1; [3]): did not respond; GFP expression, AP1 cell line (AP1; [4]): specifically induced GFP expression |
| C[C@]12CC[C@H](O)C[C@H]1CC[C@@H]1[C@@H]2CC[C@]2(C)[C@@H](c3ccc(=O)oc3)C[C@H]3O[C@]132 [Bufogenin] | Common | consistently active regardless of metabolic activation |  | active (increased GFP intensity) for all Hepa-ToxMOA cell lines (Fig. 3d) [1]: commonly active; GFP expression, AP1 cell line (AP1; [3]): did not respond; GFP expression, AP1 cell line (AP1; [4]): specifically induced GFP expression; GFP expression, P53 cell line (P53): increased |
| CC1=C(O)C(=O)C=C2C1=CC=C1[C@@]2(C)CC[C@@]2(C)[C@@H]3C[C@](C)(C(=O)O)CC[C@]3(C)CC[C@]12C [Celastrol] |  | more active under metabolic activation | S9+ only |  |
| CC(=O)O[C@H]1[C@H]2O[C@]23[C@@H]2CC[C@@H]4C[C@@H](O)CC[C@]4(C)[C@H]2CC[C@]3(C)[C@H]1c1ccc(=O)oc1 [Cinobufagin] | Common | consistently active regardless of metabolic activation |  | substrate of CYP3A4 (CYP3A4): substrates; active (increased GFP intensity) for all Hepa-ToxMOA cell lines (Fig. 3d) [1]: commonly active; substrate of CYP3A5 (CYP3A5): substrates; GFP expression, P53 cell line (P53): increased |
| CC(=O)O[C@H]1[C@H]2O[C@]23[C@@H]2CC[C@]4(O)C[C@@H](O)CC[C@]4(C)[C@H]2CC[C@]3(C)[C@H]1c1ccc(=O)oc1 [Cinobufotalin] |  | more active without metabolic activation | S9- only |  |
| C[C@@]1(C(=O)O)CC[C@]2(C)CC[C@]3(C)C4=CC(=O)c5c(cc(O)c(O)c5C=O)[C@]4(C)CC[C@@]3(C)[C@@H]2C1 [Demethylzeylasteral] |  | did not show a response |  |  |
| C[C@]12CC[C@H](O)C[C@H]1CC[C@@H]1[C@@H]2[C@H](O)C[C@]2(C)[C@@H](c3ccc(=O)oc3)CC[C@]12O [Gamabufotalin] |  | more active without metabolic activation | S9- only | GFP expression, P53 cell line (P53): increased |
| CC(C)=CCc1c(O)cc2oc3cc(O)c(O)c(CCC(C)(C)O)c3c(=O)c2c1O [Garcinone C] | S9+ only | more active under metabolic activation |  |  |
| CO[C@]1(CC[C@@H](C)CO[C@@H]2O[C@H](CO)[C@@H](O)[C@H](O)[C@H]2O)O[C@H]2C[C@H]3[C@@H]4CC=C5C[C@@H](O[C@@H]6O[C@H](CO)[C@@H](O[C@@H]7O[C@@H](C)[C@H](O)[C@@H](O)[C@H]7O)[C@H](O)[C@H]6O[C@@H]6O[C@@H](C)[C@H](O)[C@@H](O)[C@H]6O)CC[C@]5(C)[C@H]4CC[C@]3(C)[C@H]2[C@@H]1C [Methyl protodioscin] |  |  |  | GFP intensity, AP1 cell line (AP1): increased |
| COc1cc2c3c(c1OC)-c1ccccc1C[C@H]3NCC2 [N-nornuciferine] | Common | consistently active regardless of metabolic activation |  | active (increased GFP intensity) for all Hepa-ToxMOA cell lines (Fig. 3d) [1]: commonly active; GFP expression, Nrf2 cell line (Nrf2): induced GFP expression; GFP expression, NF-κB cell line (NF-κB): increased GFP expression; GFP expression, P53 cell line (P53): no change; increase of GFP expression, P53 cell line (P53): up to 1.5 fold |
| C[C@@H]1CC[C@@]2(OC1)O[C@H]1C[C@H]3[C@@H]4CC=C5C[C@@H](O)C[C@@H](O[C@@H]6O[C@H](C)[C@H](O)[C@H](O)[C@H]6O[C@@H]6O[C@@H](C)[C@H](O)[C@@H](O)[C@H]6O)[C@]5(C)[C@H]4CC[C@]3(C)[C@H]1[C@@H]2C [Ophiopogonin B] |  | did not show a response |  |  |
| CO[C@H]1C[C@H](O[C@H]2CC[C@]3(C)[C@H]4CC[C@]5(C)[C@@H](C6=CC(=O)OC6)CC[C@]5(O)[C@@H]4CC[C@]3(O)C2)O[C@H](C)[C@H]1O[C@@H]1O[C@H](CO)[C@@H](O)[C@H](O)[C@H]1O [Periplocoside] |  |  |  | GFP expression, AP1 cell line (AP1; [3]): did not respond; GFP expression, AP1 cell line (AP1; [4]): specifically induced GFP expression |
| COc1cc([C@@H]2c3cc4c(cc3[C@H](O)[C@H]3COC(=O)[C@@H]23)OCO4)cc(OC)c1OC [Picropodophyllotoxin] |  |  |  | GFP expression, AP1 cell line (AP1; [3]): did not respond; GFP expression, AP1 cell line (AP1; [4]): specifically induced GFP expression |
| C[C@@H]1O[C@@H](O[C@H]2[C@H](OC(=O)[C@]34CCC(C)(C)C[C@H]3C3=CC[C@@H]5[C@@]6(C)C[C@H](O)[C@H](O[C@@H]7O[C@H](CO)[C@@H](O)[C@H](O[C@@H]8O[C@H](CO)[C@@H](O)[C@H](O)[C@H]8O)[C@H]7O)C(CO)(CO)[C@@H]6CC[C@@]5(C)[C@]3(C)C[C@H]4O)OC[C@H](O)[C@@H]2O)[C@H](O)[C@H](O)[C@H]1O[C@@H]1OC[C@@H](O)[C@H](O[C@@H]2OC[C@](O)(CO)[C@H]2O)[C@H]1O [Platycodin D2] |  | more active without metabolic activation | S9- only |  |
| C[C@@H]1O[C@@H](O[C@H]2[C@H](OC(=O)[C@]34CCC(C)(C)C[C@H]3C3=CC[C@@H]5[C@@]6(C)C[C@H](O)[C@H](O[C@@H]7O[C@H](CO)[C@@H](O)[C@H](O)[C@H]7O)C(CO)(CO)[C@@H]6CC[C@@]5(C)[C@]3(C)C[C@H]4O)OC[C@H](O)[C@@H]2O)[C@H](O)[C@H](O)[C@H]1O[C@@H]1OC[C@@H](O)[C@H](O[C@@H]2OC[C@](O)(CO)[C@H]2O)[C@H]1O [Platycodin D] |  | more active under metabolic activation | S9+ only |  |
| COc1cc([C@@H]2c3cc4c(cc3[C@H](O)[C@H]3COC(=O)[C@H]23)OCO4)cc(OC)c1OC [Podophyllotoxin, reference compound] | Common | consistently active regardless of metabolic activation |  | GFP expression, AP1 cell line (AP1; [3]): did not respond; GFP expression, AP1 cell line (AP1; [4]): specifically induced GFP expression |
| C[C@]12CC[C@H](O)C[C@@]1(O)CC[C@@H]1[C@@H]2CC[C@]2(C)[C@@H](c3ccc(=O)oc3)CC[C@]12O [Telocinobufagin] |  | more active without metabolic activation | S9- only |  |
| CC[C@]1(O)C[C@@H]2CN(CCc3c([nH]c4ccccc34)[C@@](C(=O)OC)(c3cc4c(cc3OC)N(C)[C@H]3[C@@](O)(C(=O)OC)[C@H](OC(C)=O)[C@]5(CC)C=CCN6CC[C@]43[C@@H]65)C2)C1 [Vinblastine sulfate, reference compound] |  | more active under metabolic activation | S9+ only |  |
| CC[C@]1(O)C[C@H]2CN(CCc3c([nH]c4ccccc34)[C@@](C(=O)OC)(c3cc4c(cc3OC)N(C=O)[C@H]3[C@@](O)(C(=O)OC)[C@H](OC(C)=O)[C@]5(CC)C=CCN6CC[C@]43[C@@H]65)C2)C1 [Vincristine, reference compound] |  | more active under metabolic activation | S9+ only | active (increased GFP intensity) for all Hepa-ToxMOA cell lines (Fig. 3d) [1]: commonly active |
| COc1c(O)cc2oc3cc(O)c(CC=C(C)C)c(O)c3c(=O)c2c1CC=C(C)C [alpha-Mangostin] | S9+ only | more active under metabolic activation |  |  |
| O=C(C[C@@H]1NCCC[C@H]1O)Cn1cnc2ccccc2c1=O [beta-dichroine, beta-febrifugine (beta-dichroine)] |  | did not show a response |  |  |

Reference: PMC10881971, “Hepa-ToxMOA: a pathway-screening method for evaluating cellular stress and hepatic metabolic-dependent toxicity of natural products” (Scientific Reports, 2024)
